In brackets after ≈: the same amount, converted by molar mass. Bounds are passed on as bounds.

This assay concerns Mycobacterium tuberculosis. The experiment in a line: Antimicrobial activity against Bacille Calmette-Guerin. It counts as functional. The settings on record: variant bovis BCG.
For the molecule `CC(C)=C[C@H]1C[C@H](C)[C@]2(CC[C@]3(C)C[C@@H]4C(C)=CC(=O)[C@H]4/C(C=O)=C\C[C@H]32)O1` [3-ANHYDRO-6-EPI-OPHIOBOLIN A], the minimum inhibitory concentration (MIC) is greater than 100 µg/mL. `CC(C)=C[C@H]1C[C@H](C)[C@]2(CC[C@]3(C)C[C@@H]4C(C)=CC(=O)[C@]4(O)/C(C=O)=C\C[C@H]32)O1`: the MIC is 12.5 µg/mL (≈ 31.4 µM).

`CC(C)=C[C@H]1C[C@H](C)[C@]2(CC[C@]3(C)C[C@@H]4C(C)=CC(=O)[C@@H]4/C(C=O)=C\C[C@H]32)O1` yielded a minimum inhibitory concentration (MIC) greater than 100 µg/mL. `NNC(=O)c1ccncc1` [ISONIAZID] gave an MIC of 0.05 µg/mL (≈ 0.365 µM).

As usually defined, the MIC is the smallest concentration in the dilution series that meets the test's criterion for growth inhibition.

These data come from ChEMBL document CHEMBL2390897, “3-Anhydro-6-hydroxy-ophiobolin A, a new sesterterpene inhibiting the growth of methicillin-resistant Staphylococcus aureus and inducing the cell death by apoptosis on K562, from the phytopathogenic fungus Bipolaris oryzae” (Bioorg Med Chem Lett, 2013).
